Experimental data from paper PMC12118597 (Science Advances, 2025).
Values joined by “and” are separate entries in the source; they are usually repeats but may differ in a detail not shown here. Identical values can stand only once. Like-named read-outs stand apart in the source and are kept apart here.

Target: SARS-CoV-2 NSP3 macrodomain (Mac1) (Severe acute respiratory syndrome coronavirus 2, UniProt P0DTD1)
Type: binding
Conditions: for Total number of conformations: ligand conformations modeled in the crystal structure; for 2*(1-BDC) (%): occupancy estimate from PanDDA
[1] = PanDDA background density correction factor
[2] = crystal soak 10 mM, P43 crystal form
[3] = crystal soak 10 mM, DMSO background map
[4] = ligand-bound crystal structure obtained (TRUE)
[5] = refined crystallographic occupancy
[6] = site occupied in X-ray crystal structure
[7] = TRUE = crystal structure with ligand obtained
[8] = site of ligand in X-ray crystal structure
[9] = PanDDA background density correction, 1-BDC
[10] = crystal soak concentration 10 mM, DMSO background map
[11] = crystal soak concentration 10 mM, P43 crystals

Compound	Occupancy difference (refined_occupancy - 2*(1-BDC))	1-BDC [1]	PanDDA run, overall: Hit [2]	PanDDA run, DMSO background map: 1-BDC [3]	PanDDA run, DMSO background map: Hit [3]	Total number of conformations	X-ray crystal structure [4]	2*(1-BDC) (%)	Refined ligand occupancy (%) [5]	Binding site [6]	1-BDC [9]	Refined ligand occupancy (%) (crystallographic refinement)	further results
CC(C)(C)[C@@H]1CCN(c2ncnc3[nH]ccc23)[C@H](CO)C1 [AVI-3722]	0	0.11	TRUE	0.11	TRUE	1	TRUE	22%	22%	Adenosine	–	–	–
CC1(C)CCC(CO)N(c2ncnc3[nH]ccc23)C1 (centres unmarked) [AVI-3726]	0	0.17	TRUE	0.17	TRUE	3	TRUE	34%	34%	Adenosine	–	–	–
OCC1CC2(CCCCC2)CN1c1ncnc2[nH]ccc12 (centres unmarked) [AVI-3727]	0	0.29	TRUE	0.29	TRUE	1	TRUE	58%	58%	Adenosine	–	–	PanDDA run, overall: Modeling comment (crystal soak 10 mM): Distal site, weak density, not modeled
OCC1CC2(CCC2)CN1c1ncnc2[nH]ccc12 (centres unmarked) [AVI-3728]	0	0.24	TRUE	0.24	TRUE	2	TRUE	48%	48%	Adenosine	–	–	PanDDA run, overall: Modeling comment (crystal soak 10 mM): Distal site, weak density, not modeled
C[C@@H](O)[C@H](CO)Nc1ncnc2[nH]ccc12.O=C(O)C(F)(F)F [AVI-3730]	0	0.14	TRUE	0.14	TRUE	1	–	28%	28%	–	–	–	X-ray crystal structure [7]: TRUE; Binding site [8]: Adenosine
Cc1nn(C)cc1C1CC[C@H](CO)N1c1ncnc2[nH]ccc12 (some centres unmarked) [AVI-3733]	20	0.1	TRUE	0.1	TRUE	1	TRUE	20%	40%	Adenosine	–	–	PanDDA run, overall: Modeled [2]: TRUE
Cc1c[nH]c2ncnc(NCC3(O)CCC(O)CC3)c12 (centres unmarked) [AVI-4329]	–	–	–	–	–	–	TRUE	18%	–	Adenosine	0.09	30%	Hit (PanDDA run, DMSO background map) [10]: TRUE; Modeled (PanDDA run, DMSO background map) [10]: TRUE; 1-BDC (PanDDA run, DMSO background map) (crystal soak concentration 10 mM, DMSO background map, event 1): 0.09 and 0.11; Hit (PanDDA run, overall) [11]: TRUE; Modeled (PanDDA run, overall) [11]: TRUE; Modeling comment (PanDDA run, overall) [11]: Duplicate, not modeled
CC(O)C(C)Nc1ncnc2[nH]ccc12 (centres unmarked) [AVI-5158]	–	–	–	–	–	–	–	34%	–	–	0.17	34%	X-ray crystal structure [7]: TRUE; Binding site [8]: Adenosine
CC(C)C1CCCN1c1ncnc2[nH]ccc12 (centres unmarked) [AVI-5216]	–	–	–	–	–	–	TRUE	26%	–	Adenosine	0.13	40%	–
CC(C)(C)C1CCCN1c1ncnc2[nH]ccc12 (centres unmarked) [AVI-6000]	–	–	–	–	–	–	TRUE	14%	–	Adenosine	0.07	14%	–
